One experiment is described as follows: Insulin tolerance test. It is filed as in vivo, mice. To be noted: intraperitoneal. How it is done:
Insulin tolerance tests were performed as described previously with some modification. Briefly, 2-3 months old male mice were fasted for 2 hr. and their blood glucose levels (T=0) were measured with tail bleeding using a glucometer (AlphaTRAK). After then, mice were injected intraperitoneally with Humulin (6 nmol/kg body weight), S597 (9 nmol/kg), S597-S20D (9 nmol/kg), S597-W6A (9 nmol/kg), S597-F27A (9 nmol/kg), or S597-N20 (27 nmol/kg), and their blood glucose levels were measured at the indicated time points after injection.

The target in the next experiment is T1, IR wild-type (WT) (Homo sapiens, UniProt P06213).
T1 construct: expressed in transfected cells; host or cells: 293 FT cells
Put plainly: IR activation (auto-phosphorylation) assay in 293 FT cells expressing IR WT. The class given is cell-based. The procedure: The insulin receptor signaling assay was performed as described earlier with some modifications. For the activation assay, the short isoform of human IR in pCS2-MYC was used as described previously. Plasmid transfections into 293 FT cells were performed with Lipofectamin™ 2000 (Invitrogen).
The cells were incubated with the lysis buffer B [50 mM Hepes pH 7.4, 150 mM NaCl, 10% Glycerol, 1% Triton X-100, 1 mM EDTA, 100 mM sodium fluoride, 2 mM sodium orthovanadate, 20 mM sodium pyrophosphate, 0.5 mM dithiothreitol (DTT), 2 mM phenylmethylsulfonyl fluoride (PMSF)] supplemented with complete Protease Inhibitor Cocktail (Roche), PhosSTOP (Sigma), and 25 U/ml turbo nuclease (Accelagen) on ice for 1 hr. After centrifuge at 20,817 g at 4° C. for 10 min, the concentrations of cell lysate were measured using Micro BCA Protein Assay Kit (Thermo Scientific). About 50-60 μg total proteins were analyzed by SDS-PAGE and quantitative Western blotting. The following antibodies were purchased from commercial sources: Anti-IR-pY1150/1151 (WB, 1:1000; 19H6; labeled as pY IR, Cat. #3024), anti-AKT (WB, 1:1000; 40D4, Cat. #2920), anti-pS473 AKT (WB, 1:1000; D9E, Cat. #4060), anti-ERK1/2 (WB, 1:1000; L34F12, Cat. #4696), anti-pERK1/2 (WB, […]; 197G2, Cat. #4377), anti-IRS1-pS616 (WB, 1:1000; C15H5, Cell Signaling, Cat. #3203); anti-IRS1 (WB, 1:1000; A301-158A, Bethyl Laboratory); anti-IR (WB, 1:500, CT-3, Santa Cruz; labeled as IR for primary hepatocytes and MEFs, Cat. #sc-57342); anti-IR (WB, 1:1000; EPR23566-103; labeled as IR for FIG. 31, ab278100, Abcam); anti-Myc (WB, 1:2000; 9E10, Cat. #11667149001, Roche; labeled as IR for 293 FT cells). For quantitative western blots, anti-rabbit immunoglobulin G (IgG) (H+L) (WB, 1:5000; Dylight 800 conjugates, Cat. #5151) and anti-mouse IgG (H+L) (WB, 1:5000; Dylight 680 conjugates, Cat. #5470) (Cell Signaling) were used as secondary antibodies. The membranes were scanned with the Odyssey Infrared Imaging System (Li—COR, Lincoln, NE).

Another experiment deals with IR signaling. Kind of experiment: Insulin signaling in vivo (liver, skeletal muscle, WAT lysates, western blot). More on the design: species or system mice. The procedure: 2-3 months old male mice were fasted overnight. […] Livers were removed at 3 min after injection. White adipose tissue and skeletal muscles were removed at 5 min and 7 min after injection, respectively. Tissues were mixed with the lysis buffer B supplemented with complete Protease Inhibitor Cocktail (Roche), PhosSTOP (Sigma), and 25 U/ml turbo nuclease (Accelagen), homogenized with FisherbrandTM Bead Mill homogenizer, and then incubated on ice for 1 hr. After centrifuge at 20,817 g at 4° C. for 30 min, the concentrations of cell lysate were measured using Micro BCA Protein Assay Kit (Thermo Scientific). The lysates were then analyzed by quantitative western blotting.
For orientation: Immunoblotting shows a protein as a band on a membrane.

The nature of experiment [1]: Chronic treatment by osmotic minipump. The class given is in vivo, mice. The source says:
2-month-old male mice were implanted with osmotic minipump releasing Humulin (0.2 U/day), S597 (0.3 U/day), or S597-S20D (0.3 U/day). […] Hepes, N=7; Humulin, N=8; S597, N=7; S597-S20D, N=4. […] Hepes, N=7; Humulin, N=8; S597, N=9; S597-S20D, N=4. Two-way ANOVA followed by Tukey's multiple comparisons test. […] Mean±SEM. Hepes, N=8; Humulin, N=7; S597, N=9; S597-S20D, N=5. […] Hepes, N=4; Humulin and S597 analogs, N=5. two-tailed Student's t-test. All graphs show Mean±SEM.
To examine the long-term effects of S597 in vivo, C57BL/6J WT mice were implanted with osmotic minipumps releasing either HEPES, Humulin, or mimetics. […] Consistent with previous work, chronic treatment of Humulin increased body weight (FIGS. 11E, 11F).

The target in a further experiment is T2, IR F497A (Homo sapiens, UniProt P06213, F524A).
T2 construct: expressed in transfected cells; host or cells: 293 FT cells
Put plainly: IR activation assay in 293 FT cells, IR F497A mutant. It is filed as cell-based. To be noted: 10 min.

Experiment [2] relates to 3T3-L1 and IR-transfected L6 myoblasts. The conditions noted are these: cited from earlier work.
The subject of another experiment is full-length IGF1R. Kind of experiment: In vitro competition assay for full-length IGF1R. It is filed as binding.
The mark [3] stands for this setting: WAT, compared to vehicle treated conditions.
Where [4] appears, read: liver, injection via inferior vena cava.
[5] abbreviates: skeletal muscle, injection via inferior vena cava.

SMILES strings stand for the structures. Entries after “also recorded” stand apart in the source; their conditions may differ. Bridge positions count the residues as written; N and C are the ends. Peptide text beside a SMILES is read from it.

T1 sequence (P06213 28-1370 isoform P06213-2 limits assumed): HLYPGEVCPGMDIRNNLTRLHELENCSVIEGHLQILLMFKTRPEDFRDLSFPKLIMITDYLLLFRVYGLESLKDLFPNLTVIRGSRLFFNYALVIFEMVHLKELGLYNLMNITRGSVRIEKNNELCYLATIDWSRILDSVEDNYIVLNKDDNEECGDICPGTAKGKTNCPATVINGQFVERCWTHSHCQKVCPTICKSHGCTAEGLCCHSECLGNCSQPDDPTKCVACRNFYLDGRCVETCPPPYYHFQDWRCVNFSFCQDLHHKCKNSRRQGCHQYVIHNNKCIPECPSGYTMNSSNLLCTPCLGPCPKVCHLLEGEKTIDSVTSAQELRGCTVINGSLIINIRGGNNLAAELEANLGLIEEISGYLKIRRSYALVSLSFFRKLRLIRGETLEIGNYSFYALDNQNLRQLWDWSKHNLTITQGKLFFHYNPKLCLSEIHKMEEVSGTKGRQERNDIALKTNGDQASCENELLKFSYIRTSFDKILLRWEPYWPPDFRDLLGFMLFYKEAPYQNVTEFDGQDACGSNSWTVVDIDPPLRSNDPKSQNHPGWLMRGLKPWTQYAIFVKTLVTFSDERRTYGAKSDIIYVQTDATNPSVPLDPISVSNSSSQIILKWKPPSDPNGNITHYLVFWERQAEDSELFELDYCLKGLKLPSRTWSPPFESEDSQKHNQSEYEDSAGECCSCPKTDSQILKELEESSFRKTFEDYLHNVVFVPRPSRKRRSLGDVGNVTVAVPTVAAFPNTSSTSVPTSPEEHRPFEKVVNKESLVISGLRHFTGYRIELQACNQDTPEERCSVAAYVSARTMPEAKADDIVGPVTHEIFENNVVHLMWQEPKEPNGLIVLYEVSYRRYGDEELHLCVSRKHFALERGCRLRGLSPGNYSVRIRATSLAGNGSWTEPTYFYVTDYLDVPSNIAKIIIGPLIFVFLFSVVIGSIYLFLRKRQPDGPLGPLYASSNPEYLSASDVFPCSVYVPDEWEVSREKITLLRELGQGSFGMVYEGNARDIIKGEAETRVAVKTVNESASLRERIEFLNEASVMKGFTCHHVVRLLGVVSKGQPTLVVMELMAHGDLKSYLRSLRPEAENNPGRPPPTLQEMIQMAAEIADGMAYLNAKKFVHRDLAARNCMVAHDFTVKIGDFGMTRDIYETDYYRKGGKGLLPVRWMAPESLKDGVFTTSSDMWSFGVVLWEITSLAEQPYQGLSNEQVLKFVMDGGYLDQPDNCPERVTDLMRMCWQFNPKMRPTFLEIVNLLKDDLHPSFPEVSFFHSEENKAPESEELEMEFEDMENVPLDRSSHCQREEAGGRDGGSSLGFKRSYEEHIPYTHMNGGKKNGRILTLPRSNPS
T1 sequence (P06213 763-1382 partner limits assumed): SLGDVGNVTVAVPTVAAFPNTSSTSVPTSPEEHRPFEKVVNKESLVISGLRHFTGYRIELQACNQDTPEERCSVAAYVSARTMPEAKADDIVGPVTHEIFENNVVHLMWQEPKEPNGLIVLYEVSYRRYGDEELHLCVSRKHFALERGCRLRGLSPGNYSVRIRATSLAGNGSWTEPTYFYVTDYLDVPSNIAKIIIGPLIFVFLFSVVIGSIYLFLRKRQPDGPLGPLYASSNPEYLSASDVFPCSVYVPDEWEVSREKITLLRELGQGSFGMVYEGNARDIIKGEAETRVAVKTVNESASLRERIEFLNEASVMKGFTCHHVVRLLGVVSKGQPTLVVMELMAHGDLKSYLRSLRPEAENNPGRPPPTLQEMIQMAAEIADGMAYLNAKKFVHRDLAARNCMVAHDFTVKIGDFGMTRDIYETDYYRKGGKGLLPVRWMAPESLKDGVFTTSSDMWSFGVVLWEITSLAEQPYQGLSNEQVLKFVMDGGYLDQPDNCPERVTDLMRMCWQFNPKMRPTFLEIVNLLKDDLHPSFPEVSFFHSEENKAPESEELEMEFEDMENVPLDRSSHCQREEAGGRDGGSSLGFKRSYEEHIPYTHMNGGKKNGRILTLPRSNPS
T2 sequence (P06213 28-1370 isoform P06213-2 F524A limits assumed): as the sequence (P06213 28-1370 isoform P06213-2 limits assumed) above, with F497A counted along it
T2 sequence (P06213 763-1382 partner limits assumed): as the sequence (P06213 763-1382 partner limits assumed) above

Turning to `CC[C@H](C)[C@H](NC(=O)[C@H](CCC(N)=O)NC(=O)[C@H](C)NC(=O)[C@H](Cc1c[nH]c2ccccc12)NC(=O)[C@H](CCC(=O)O)NC(=O)[C@H](CCC(=O)O)NC(=O)[C@H](CCC(=O)O)NC(=O)[C@H](CC(C)C)NC(=O)[C@H](CO)NC(C)=O)C(=O)N[C@@H](CCC(=O)O)C(=O)N[C@H]1CSSC[C@@H](C(=O)N2CCC[C@H]2C(=O)N[C@@H](CO)C(=O)N[C@@H](CCC(=O)O)C(=O)N[C@@H](CO)C(=O)N[C@@H](Cc2ccccc2)C(=O)N[C@@H](Cc2ccc(O)cc2)C(=O)N[C@@H](CC(=O)O)C(=O)N[C@@H](Cc2c[nH]c3ccccc23)C(=O)N[C@@H](Cc2ccccc2)C(=O)N[C@@H](CCC(=O)O)C(=O)N[C@@H](CCCNC(=N)N)C(=O)N[C@@H](CCC(N)=O)C(=O)N[C@@H](CC(C)C)C(N)=O)NC(=O)CNC(=O)[C@H](CCCNC(=N)N)NC(=O)CNC(=O)[C@H](Cc2ccc(O)cc2)NC(=O)[C@H](C(C)C)NC(=O)[C@H](CCC(=O)O)NC1=O` [S597] (Ac-SLEEEWAQIECEVYGRGCPSESFYDWFERQL-NH2; disulfide 11-18), the “blood glucose levels in ITT” value in the experiment “Insulin tolerance test” (FIGS. 10A, 8F, 8G) is given as “lowered”. Also, the “blood glucose in insulin tolerance assays” value in the experiment “Insulin tolerance test” (FIGS. 12B, 12C) is listed as “lowered blood glucose in mice as effectively as insulin”. Also, the “IR activation (auto-phosphorylation of IR, pY IR)” value at IR wild-type (WT) (293 FT cells expressing IR WT, 10 nM for 10 min) is “as efficiently as insulin”. In addition, the “difference between the A and B isoforms of IR activation” value on IR wild-type (WT) (293 FT cells expressing IR-A or IR-B, 10 min) is “no significant difference”. Also, the pAKT level result in the experiment with IR signaling (setting [3]) and in the experiment on IR signaling (setting [5]) was “significantly increased” in each case. The pERK level entry in the experiment with IR signaling (setting [3]) is “neither insulin nor S597 had a statistically significant effect”; with IR signaling (setting [4]), “increased”; in the experiment with IR signaling (setting [5]), “less potent; also recorded: not in the skeletal muscle”. Further, the “pY IR level” value with IR signaling (WAT, injection via inferior vena cava) is on record as “robust auto-phosphorylation of the IR, albeit with lower potency than insulin”; in the experiment with IR signaling (setting [4]), “robust auto-phosphorylation of the IR, albeit with lower potency than insulin”; in the experiment on IR signaling (setting [5]), “significantly increased”. Besides, the body weight gain result in experiment [1] is listed as “gained less than control mice”. Also, the “weight gain and fat mass” value in experiment [1] (FIG. 11, preliminary data) was “reduces weight gain and fat mass relative to insulin”. Moreover, on IR F497A, the “IR activation (pY IR)” value is on record as “fully activated”. The MAPK pathway result in experiment [2] was “largely inactive”. Further, the PI3K-AKT pathway result in experiment [2] is reported as “selectively activates”. Besides, the “binding to IGF1R” value in the experiment with full-length IGF1R was “do not bind”.

The values above are taken from patent US20250250303A1 (THE TRUSTEES OF COLUMBIA UNIVERSITY IN THE CITY OF NEW YORK, priority 2022, published 2025).
